Laboratory results: patent US20230271925A1, “NOVEL TNF ACTIVITY INHIBITOR COMPOUND, AND PHARMACEUTICALLY ACCEPTABLE SALT THEREOF” (ILAB, priority 2020, published 2023)
pIC50: −log10 of the molar value. Marks after values point to notes of the source that are not given here.

Key:
[1] = tested on: TNF-induced death of C57BL/6 mice; test: TNF-induced mouse lethality assay; type: in vivo; conditions: for Survival (%): C57BL/6 male mice, 20 or 40 mg/kg p.o. 30 min before hTNF 8 μg/kg + D-galactosamine 700 mg/kg i.p., 24 hours; for survival rate of mice compared to the control group: C57BL/6 mice, pre-treated p.o., TNF + D-galactosamine
Description: In this experiment, the TNF-induced mouse death inhibition activity by the compound of the present invention was investigated. To this end, mice were pretreated with the compound of the present invention, and the survival rate of the mice was measured against TNF-induced death.
In particular, after C57BL/6 mice were fasted for 24 hours, 100 μL of the compounds of Examples 2, 32, 39, 40, 44, 47, and 48 in a buffer composition of 10% DMSO in 90% PBS was orally administered at a concentration of 20 or 40 mg/kg. After 30 minutes, a mixed solution of human recombinant TNF 8 μg/kg and D-galactosamine 700 mg/kg in PBS buffer was intraperitoneally administered at 100 μL per mouse, the survival rate of mice was measured every 3 hours from the time of intraperitoneal administration and the experiment was terminated 24 hours later. The mice were divided into 5 groups, the experiment was repeated 5 times, and the Example compounds used for each experiment are as shown in FIG. 7(a, b).

[2] = tested on: mouse fibroblast L929 cells; test: TNF-induced apoptosis inhibitory activity in L929 cells (MTS assay); type: cell-based; conditions: TNF 20 ng/mL + actinomycin D, compound 0 to 40 μM, 24 hours, read-out: IC50, inhibition of TNF-induced apoptosis
Description: In this experiment, the TNF-induced apoptosis inhibitory activity by the compound of the present invention was investigated. To this end, mouse fibroblasts were treated with the chromenone and quinolone derivative compounds prepared in the above Examples, and then cell viability was measured by a conventionally known MTS assay.
Mouse fibroblast L929 cells were purchased from the American Type Culture Collection (ATCC Manassas, Va.), and then cultured in RPMI medium containing 10% Fetal Bovine Serum (FBS) and 1% antibiotics at the incubator in which 5% CO2 and humidity at 37° C. were maintained.
Mouse fibroblast L929 cells were treated with recombinant TNF and actinomycin D, a sensitizer, to induce apoptosis, with which an assay capable of confirming apoptosis inhibitory activity was established. In particular, apoptosis conditions were induced by adding actinomycin D as a sensitizer and TNF (20 ng/mL) to […], and then L929 cells were pretreated with the compounds of Examples 52, 54, and 55 at a concentration of 0 to 40 μM for 24 hours. After 24 hours, they were treated with MTS for 3 hours, and then the absorbance was measured at 490 nm to calculate IC50 values. % Inhibition of TNF was calculated by the following formula.
% Inhibition of TNF=(OD value of the group treated with the compound−OD value of the group treated with TNF and actinomycin D)/(OD value of the group treated with actinomycin D−OD value of the group treated with TNF and actinomycin D)×100
IC50 values were statistically calculated using Prism 6 (GraphPad) (IC50: 50% inhibitory concentration).

[3] = biological target: TNF-TNFR1 (Homo sapiens, UniProt P01375); test: TNF-TNFR1 binding inhibition, FRET assay; conditions: for pIC50: FRET (HTRF ratio), 0.25 nM TNF, 0.25 nM His-labeled TNFR1
TNF-TNFR1, sequence (P01375 77-233 limits assumed): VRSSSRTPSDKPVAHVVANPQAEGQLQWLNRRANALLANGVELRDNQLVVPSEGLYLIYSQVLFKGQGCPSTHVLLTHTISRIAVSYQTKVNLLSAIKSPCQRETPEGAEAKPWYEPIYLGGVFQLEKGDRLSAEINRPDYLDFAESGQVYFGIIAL
Description: (§1) In this experiment, the inhibitory activity of the compound of the present invention was evaluated using a fluorescence resonance energy transfer (FRET) assay to measure the binding of TNF-TNFR1 or TNF-TNFR2.
(§2) In particular, biotin-labeled 0.25 nM TNF, XL-665-labeled streptavidin, 0.25 nM His-labeled TNFR1, 1 nM His-labeled TNFR2, and Europium-Gold-labeled anti-his Ab were used. First, each 2 μL (10% DMSO) of the compounds of Examples 48 and 51 was added in 384 wells. After 4 μL of 0.25 nM TNF was added, 4 μL of each of 0.25 nM His-labeled TNFR1 or 1 nM His-labeled TNFR2 was added thereto and incubated at room temperature for 1 hour. After 1 hour incubation, 5 μL of XL-665-labeled streptavidin and 5 μL of Europium-Gold-labeled anti-his Ab were added and further incubated at room temperature. […] was measured at 622 nm and 665 nm. The reagent used at this time was prepared by dissolving in PPI-europium detection buffer.
(§3) First, binding inhibitory activity of the compounds of the present invention to TNF and TNFR1 or TNFR2 was evaluated at a single concentration ([…]) of the compounds.
(§4) Then, IC50 values were obtained with the various concentrations of the compounds of Examples 48 and 51. At this time, the value was confirmed through the HTRF ratio, and the HTRF ratio was calculated by the following formula.
(§5) IC50 values were statistically calculated using Prism 6 (GraphPad).

[4] = biological target: TNF-TNFR2 (Homo sapiens, UniProt P01375); test: TNF-TNFR2 binding inhibition, FRET assay; conditions: for pIC50: FRET (HTRF ratio), 0.25 nM TNF, 1 nM His-labeled TNFR2
TNF-TNFR2, sequence (P01375 77-233 limits assumed): as above
Description: as §1, §2, §3, §4, §5

[5] = tested on: HEK-Blue TNF cells; test: Inhibition of TNF response in HEK-Blue TNF cells (SEAP reporter gene assay); type: cell-based; conditions: Homo sapiens, TNF 0.2 ng/mL, absorbance 620 nm
Description: In this experiment, the TNF-inhibitory activity of the compound of the present invention was evaluated in HEK-Blue TNF cells. To this end, the transformed HEK-Blue TNF cells that respond specifically to the binding of TNF to TNFRs on the cell surface were treated with the compound of Example 48, followed by a reporter gene assay.
HEK-Blue TNF cells are human embryonic kidney cells that were transformed to express SEAP (secreted embryonic alkaline phosphatase) reporter gene having the binding site for activated NF-κB when TNF binds to TNFR on the cell surface and NF-κB is activated in the cell. […]
An experimental method was used in which SEAP, a reporter gene having the binding site for activated NF-κB in the intracellular signal transduction process, is expressed when human embryonic kidney cells, HEK-Blue TNF cells, are treated with recombinant TNF. In particular, SEAP is expressed when TNF (0.2 ng/mL) is added to HEK-Blue TNF cells, and the degree of color development is measured by treating the SEAP-specific QUANTI-Blue™ solution followed by reading absorbance at 620 nm to obtain IC50 value. The inhibition rate (%) of TNF was calculated by the following formula. […]
as §5

[6] = tested on: RIP1; test: RIP1 ubiquitination, immunoprecipitation with TNFR1 in human peripheral blood T cells; type: cell-based; conditions: compound 0.1 μM 24 hours, then TNF 10 minutes, vs hTNF alone
Description: Two experiments were conducted to examine the TNF-cell signal transduction inhibitory activity by the compound of the present invention. First, immunoprecipitation was performed to evaluate the ubiquitination of an upstream protein of the TNF signaling pathway, that is, RIP1.
In particular, human peripheral blood T cells were treated with the compound of Example 48 (0, 0.1 μM) for 24 hours followed by with TNF for 10 minutes, and then immunoprecipitation was performed with TNFR1 protein.

[7] = tested on: TNF-cell signal transduction pathway; test: TNF-cell signal transduction, Western blot in L929 cells; type: cell-based, mouse; conditions: hTNF 10 ng/ml + compound 0.01, 0.1, 1, 10 μM, vs hTNF alone
Description: Second, the inhibition of TNF signal transduction activity of Example 48 was confirmed. In order to examine the TNF-cell signal transduction inhibitory activity by the compound of the present invention, Western blot analysis was performed on proteins of the signal transduction pathway, namely phospho-p65, phospho-IKKα/β, phospho-SAPK/JNK, and phospho-AKT.
In particular, hTNF alone (10 ng/ml) or a mixture of hTNF and the compound of Example 48 (0.01, 0.1, 1, 10 μM) was incubated for 30 minutes, and then the incubated mixture was applied to mouse fibroblast L929 cells for 10 minutes. After the treatment, Western blot analysis was performed for phospho-p65, phospho-IKKα/β, phospho-SAPK/JNK, and phospho-AKT.

[8] = single concentration (10 PM), FIG. 4

In the case of `COc1c(-c2cc(F)cc(F)c2)oc2cc(F)ccc2c1=O` [Example 44, 2-(3,5-difluorophenyl)-7-fluoro-3-methoxy-4H-chromen-4-one], the “Survival (%)” value [1] was 60 ** % and the “survival rate of mice compared to the control group” value [1] was “increased”.

`O=C(NCCNC(=O)c1c(-c2cc(F)ccc2F)oc2cc(Cl)ccc2c1=O)c1c(-c2cc(F)ccc2F)oc2cc(Cl)ccc2c1=O` [Example 52, N,N′-(ethane-1,2-diyl)bis(7-chloro-2-(2,5-difluorophenyl)-4-oxo-4H-chromene-3-carboxamide)] was tested, and the pIC50 [2] was 5.83.

With `O=C(c1c(-c2cc(F)ccc2F)oc2cc(Cl)ccc2c1=O)N1CCN(C(=O)c2c(-c3cc(F)ccc3F)oc3cc(Cl)ccc3c2=O)CC1` [Example 55, 3,3′-(piperazine-1,4-dicarbonyl)bis(7-chloro-2-(2,5-difluorophenyl)-4H-chromen-4-one)] the pIC50 [2] was 5.12.

For `O=C(O)c1c(-c2ccc(OCCOCCOc3ccc(-c4oc5cc(Cl)ccc5c(=O)c4C(=O)O)c(F)c3)cc2F)oc2cc(Cl)ccc2c1=O` [Example 51, 2,2′-(((oxybis(ethane-2,1-diyl))bis(oxy))bis(2-fluoro-4,1-phenylene))bis(7-chloro-4-oxo-4H-chromene-3-carboxylic acid)], the pIC50 [3] was 4.84, the “binding inhibitory activity, TNF and TNFR1” value [3, 8] was “inhibit the binding” and the pIC50 [4] was 4.65. For the same compound, the “binding inhibitory activity, TNF and TNFR2” value [4, 8] was “inhibit the binding”.

For `COc1c(-c2cc(F)ccc2F)oc2cc(Cl)ccc2c1=O` [Example 40, 7-chloro-2-(2,5-difluorophenyl)-3-methoxy-4H-chromen-4-one], the “Survival (%)” value [1] was 50 * % and the “survival rate of mice compared to the control group” value [1] was “increased”.

`COc1ccc2c(=O)c(O)c(-c3cc(F)cc(F)c3)oc2c1` [Example 39, 2-(3,5-difluorophenyl)-3-hydroxy-7-methoxy-4H-chromen-4-one] was tested, and the “Survival (%)” value [1] was 40% and the “survival rate of mice compared to the control group” value [1] was “increased”.

`O=c1c(O)c(-c2cc(F)ccc2F)oc2cc(Cl)ccc12` [Example 32, 7-chloro-2-(2,5-difluorophenyl)-3-hydroxy-4H-chromen-4-one] was tested, and the “Survival (%)” value [1] was 90 *** % and the “survival rate of mice compared to the control group” value [1] was “increased”.

For `O=C(O)c1c(-c2cc(F)ccc2F)[nH]c2cc(Cl)ccc2c1=O` [Example 2, 2-(2,5-difluorophenyl)-3-carboxy-7-chloro-4-(1H)-quinolone], the “Survival (%)” value [1] was 60% and the “survival rate of mice compared to the control group” value [1] was “increased”.

`COc1ccc2c(=O)c(OC)c(-c3ccc(F)cc3F)oc2c1` [Example 47, 2-(2,4-difluorophenyl)-3,7-dimethoxy-4H-chromen-4-one] was tested, and the “Survival (%)” value [1] was 40 * % and the “survival rate of mice compared to the control group” value [1] was “increased”.

Compound `O=C(NCCCCNC(=O)c1c(-c2cc(F)ccc2F)oc2cc(Cl)ccc2c1=O)c1c(-c2cc(F)ccc2F)oc2cc(Cl)ccc2c1=O` [Example 54, N,N′-(butane-1,4-diyl)bis(7-chloro-2-(2,5-difluorophenyl)-4-oxo-4H-chromene-3-carboxamide)] has a pIC50 [2] of 5.14.

`O=C(O)c1c(-c2ccc(OCCOc3ccc(-c4oc5cc(Cl)ccc5c(=O)c4C(=O)O)c(F)c3)cc2F)oc2cc(Cl)ccc2c1=O` [Example 48, 2,2′-((ethane-1,2-diylbis(oxy))bis(2-fluoro-4,1-phenylene))bis(7-chloro-4-oxo-4H-chromene-3-carboxylic acid)] was tested, and the pIC50 [5] was 5.01, the pIC50 [3] was 5.45 and the “binding inhibitory activity, TNF and TNFR1” value [3, 8] was “inhibit the binding”. The “binding inhibitory effect compared with SPD304 and Quercetin, TNF-TNFR1” value [3, 8] was “higher binding inhibitory effect than SPD304”, the pIC50 [4] was 5.41 and the “binding inhibitory activity, TNF and TNFR2” value [4, 8] was “inhibit the binding”. For the same compound, the “binding inhibitory effect compared with SPD304 and Quercetin, TNF-TNFR2” value [4, 8] was “higher binding inhibitory effect than SPD304”, the “degree of RIP1 ubiquitination activated by TNF” value [6] was “reduced” and the “level of phospho-AKT” value [7] was “reduced”. The “level of phospho-IKKα/β” value [7] was “reduced”, the “level of phospho-SAPK/JNK” value [7] was “reduced” and the “level of phospho-p65” value [7] was “reduced”. For the same compound, the “Survival (%)” value [1] was 50 * % and the “survival rate of mice compared to the control group” value [1] was “increased”.
